“And” between values parts separate entries of the source, which are not always exact repeats. Equal entries are not always repeated. The source made the active and inactive calls.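 How the source made its calls: active means fitted curve reaches a 40% rise in lysis activity at or below the top valid tested dose; inconclusive means flat curve holding a 30 to 70% rise, or poor fit; inactive means signal moving opposite to the expected rise, and the rest.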 Some results are limits rather than exact numbers.

Tested on in the first test: not listed separately
Nature of the test: Cryptococcus neoformans cell lysis inducers, dose response, AK release luminescence, dry powder (AID 743159). The settings on record: Cryptococcus neoformans lysis, adenylate kinase release luminescence, 4 h; at 15 µM (top of the series).
Turning to `CCOC(=O)c1c(NC(=O)CNCCN(C)C)sc(C)c1-c1ccccc1`, the lysis activity increase is 16.9% (inactive).
As to `CCOC(=O)c1c(-c2ccc(F)cc2)csc1NC(=O)CN1CCN(CC)CC1`, the lysis activity increase was 20.2% (inactive).
Same read-out and setting: the value for `O=c1[nH]c2ccccc2n1CCOc1ccccc1` was -3.24% (inactive) and 10.6% (inactive); that for `CCOC(=O)c1c(NC(=O)CN2CCN(C)CC2)sc(C)c1-c1ccc(C)cc1` was -2.55% (inactive).
Same read-out and setting: with `Cc1ccc(OCCn2c(SCCO)nc3ccccc32)c(C(C)C)c1` the figure was 18.7% (inactive); with `CCOC(=O)c1c(-c2ccc(OC)cc2)csc1NC(=O)CN(C)CC(=O)N(C)C`, -2.9% (inactive).

The subject of another test is Cryptococcus neoformans lysis, adenylate kinase release luminescence, 4 h. The test is described as above.
Settings: not given
Take `Cc1ccc(OCCn2c(=S)[nH]c3ccccc32)c(C(C)C)c1`: the AC40 is 334 nM and 155 nM.
Turning to `COC(=O)C1=C(C)N(Cc2ccccc2)C(=S)NC1c1ccc(Br)cc1` (stereo not given), the AC40 was 1810 nM.
Still for that read-out and setting: with `COC(=O)C1=C(C)N(Cc2ccc(Cl)cc2)C(=S)NC1c1ccc(Br)cc1` (stereo not given) the figure was 454 nM; with `Fc1ccccc1OCCn1c(=S)[nH]c2ccccc21`, 1770 nM.
As for `CCOC(=O)c1c(-c2ccc(-c3ccccc3)cc2)csc1NC(=O)CNCCN(C)C`, the AC40 is 6640 nM.
`Cc1cccc(OCCn2c(=S)[nH]c3cc(C(F)(F)F)ccc32)c1`: the AC40 was 352 nM.
On the same count and under the same terms, the value for `S=c1[nH]c2ccccc2n1CCOc1ccccc1` was 1630 nM; that for `COC(=O)C1=C(C)N(Cc2ccc(Br)cc2)C(=S)NC1c1ccc(OC)cc1` (stereo not given) was 925 nM.
As to `Fc1cccc2c1[nH]c(=S)n2CCOc1ccccc1`, the AC40 was 1500 nM.
Take `CCOC(=O)c1c(-c2ccc(C(C)(C)C)cc2)csc1NC(=O)CN1CCN(CC)CC1`: the AC40 was 6310 nM.
For the compound `CCOc1ccc(OCCn2c(=S)[nH]c3ccccc32)cc1`, the AC40 was 880 nM.
Same read-out and setting: with `Cc1ccccc1OCCn1c(=S)[nH]c2ccccc21` the figure was 596 nM; with `Cc1ccc(C(C)C)c(OCCn2c(=S)[nH]c3ccccc32)c1`, 232 nM; with `c1ccc(OCCn2cnc3ccccc32)cc1`, > 15000 nM (inactive).
Still for that read-out and setting: with `CCOC(=O)c1c(-c2ccc(C(C)(C)C)cc2)csc1NC(=O)CN1CCN(C)CC1` the figure was 6330 nM; with `S=c1[nH]c2cccc(Cl)c2n1CCOc1ccccc1`, 851 nM; with `S=c1[nH]c2ccccc2n1CCOc1ccc(Cl)cc1`, 270 nM.
On the same count and under the same terms, the value for `Cc1ccc(OCCn2c(=S)[nH]c3ccccc32)cc1` was 703 nM; that for `CCOC(=O)c1c(-c2ccc(F)cc2)csc1NC(=O)CN1CCN(C)CC1` was > 15000 nM (inactive).
Regarding `Cc1ccc(OCCn2cnc3ccccc32)cc1`, the AC40 was 2860 nM.
Same read-out and setting: the value for `Cc1ccc(OCCn2c(C)nc3ccccc32)cc1` was 1480 nM; that for `COC(=O)C1=C(C)N(Cc2ccc(Br)cc2)C(=S)NC1c1ccc(F)cc1` (stereo not given) was 681 nM.
On the same count and under the same terms, the value for `Cc1ccc2c(c1)[nH]c(=S)n2CCOc1ccccc1` was 211 nM; that for `COC(=O)C1=C(C)N(Cc2ccc(F)cc2)C(=S)NC1c1cccc(F)c1` (stereo not given) was 2300 nM.

Values taken from PubChem BioAssay AID743159 (Broad Institute, 2013).
